Results published in ChEMBL document CHEMBL1149262, “Monoamine transporter binding, locomotor activity, and drug discrimination properties of 3-(4-substituted-phenyl)tropane-2-carboxylic acid methyl ester isomers” (J Med Chem, 2004).
Active and inactive are the calls of the source. The rule behind the calls is not given here.

Columns and labels:
Mus musculus [1] = test: Locomotor activity in CD1 mouse assessed as stimulation at 1 mg/kg, ip after 2 hrs relative to control; assay type: functional; conditions: route intraperitoneal
Mus musculus [2] = test: Locomotor activity in CD1 mouse assessed as stimulation at 10 mg/kg, ip after 4 hrs relative to control; assay type: functional; conditions: route intraperitoneal
Mus musculus [3] = test: Locomotor activity in CD1 mouse assessed as stimulation at 0.3 mg/kg, ip after 2 hrs relative to control; assay type: functional; conditions: route intraperitoneal
Rattus norvegicus [4] = test: Drug discrimination effect in CD Albino rat assessed as percent of rat choosing cocaine lever at 1 mg/kg, ip; assay type: functional; conditions: route intraperitoneal
Mus musculus [5] = test: Locomotor activity in CD1 mouse assessed as stimulation at 1 mg/kg, ip after 3 hrs relative to control; assay type: functional; conditions: route intraperitoneal
Mus musculus [6] = test: Locomotor activity in CD1 mouse assessed as stimulation at 10 mg/kg, ip after 2 hrs relative to control; assay type: functional; conditions: route intraperitoneal
Mus musculus [7] = test: Activity in CD1 mouse assessed as circling at 10 mg/kg, ip after 4 hrs; assay type: functional, organism-based; set-up: dose 10 mg/kg
Mus musculus [8] = test: Locomotor activity in ip dosed CD1 mouse in peak hour; assay type: functional
Mus musculus [9] = test: Activity in CD1 mouse assessed as convulsions at 100 mg/kg, ip after 4 hrs; assay type: functional, organism-based; set-up: dose 100 mg/kg
Mus musculus [10] = test: Activity in CD1 mouse assessed as stereotypy at 10 mg/kg, ip after 4 hrs; assay type: functional, organism-based; set-up: dose 10 mg/kg
Mus musculus [11] = test: Locomotor activity in CD1 mouse assessed as stimulation at 3 mg/kg, ip after 2 hrs relative to control; assay type: functional; conditions: route intraperitoneal
Mus musculus [12] = test: Locomotor activity in CD1 mouse assessed as stimulation at 10 mg/kg, ip after 3 hrs relative to control; assay type: functional; conditions: route intraperitoneal
Mus musculus [13] = test: Activity in CD1 mouse assessed as stereotypy at 100 mg/kg, ip after 4 hrs; assay type: functional, organism-based; set-up: dose 100 mg/kg
Mus musculus [14] = test: Activity in CD1 mouse assessed as stereotypy at 1 mg/kg, ip after 4 hrs; assay type: functional, organism-based; set-up: dose 1 mg/kg
Mus musculus [15] = test: Activity in CD1 mouse assessed as straub tail at 100 mg/kg, ip after 4 hrs; assay type: functional, organism-based; set-up: dose 100 mg/kg
Mus musculus [16] = test: Locomotor activity in CD1 mouse assessed as stimulation at 0.3 mg/kg, ip after 4 hrs relative to control; assay type: functional; conditions: route intraperitoneal
[17] = target: Sodium-dependent noradrenaline transporter (Homo sapiens, UniProt P23975); test: Displacement of [3H]nisoxetine from NET
Sequence of Sodium-dependent noradrenaline transporter (P23975 whole entry): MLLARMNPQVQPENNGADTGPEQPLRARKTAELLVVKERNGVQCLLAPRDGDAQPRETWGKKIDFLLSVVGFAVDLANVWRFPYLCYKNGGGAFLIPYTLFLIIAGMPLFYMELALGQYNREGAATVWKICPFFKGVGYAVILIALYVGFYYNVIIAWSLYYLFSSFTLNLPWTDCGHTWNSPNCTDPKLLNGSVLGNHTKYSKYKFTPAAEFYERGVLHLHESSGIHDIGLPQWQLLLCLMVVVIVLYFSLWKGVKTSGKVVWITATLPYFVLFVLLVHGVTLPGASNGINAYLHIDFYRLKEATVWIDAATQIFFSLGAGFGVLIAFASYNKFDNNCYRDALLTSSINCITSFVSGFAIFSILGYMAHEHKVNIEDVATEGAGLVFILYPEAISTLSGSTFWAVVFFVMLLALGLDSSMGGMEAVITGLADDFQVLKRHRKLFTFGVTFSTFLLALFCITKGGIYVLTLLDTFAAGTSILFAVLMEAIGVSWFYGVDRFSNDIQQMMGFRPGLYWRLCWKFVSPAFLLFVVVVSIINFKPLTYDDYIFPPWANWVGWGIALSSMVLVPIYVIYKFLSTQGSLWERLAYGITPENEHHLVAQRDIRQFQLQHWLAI

Rattus norvegicus [18] = test: Cocaine discrimination in ip dosed CD Albino rat; assay type: functional
Mus musculus [19] = test: Locomotor activity in CD1 mouse assessed as stimulation at 3 mg/kg, ip after 3 hrs relative to control; assay type: functional; conditions: route intraperitoneal
Rattus norvegicus [20] = test: Drug discrimination effect in CD Albino rat assessed as percent of rat choosing cocaine lever at 0.17 mg/kg, ip; assay type: functional; conditions: route intraperitoneal
Mus musculus [21] = test: Locomotor activity in CD1 mouse assessed as stimulation at 3 mg/kg, ip after 1 hr relative to control; assay type: functional; conditions: route intraperitoneal
Mus musculus [22] = test: Locomotor activity in CD1 mouse assessed as stimulation at 3 mg/kg, ip after 4 hrs relative to control; assay type: functional; conditions: route intraperitoneal
Rattus norvegicus [23] = test: Drug discrimination effect in CD Albino rat assessed as percent of rat choosing cocaine lever at 0.56 mg/kg, ip; assay type: functional; conditions: route intraperitoneal
Mus musculus [24] = test: Locomotor activity in CD1 mouse assessed as stimulation at 1 mg/kg, ip after 1 hr relative to control; assay type: functional; conditions: route intraperitoneal
Mus musculus [25] = test: Locomotor activity in CD1 mouse assessed as stimulation at 1 mg/kg, ip after 4 hrs relative to control; assay type: functional; conditions: route intraperitoneal
Mus musculus [26] = test: Activity in CD1 mouse assessed as hyperactivity at 10 mg/kg, ip after 4 hrs; assay type: functional, organism-based; set-up: dose 10 mg/kg
Mus musculus [27] = test: Activity in CD1 mouse assessed as hyperactivity at 1 mg/kg, ip after 4 hrs; assay type: functional, organism-based; set-up: dose 1 mg/kg
Mus musculus [28] = test: Locomotor activity in CD1 mouse assessed as stimulation at 0.3 mg/kg, ip after 3 hrs relative to control; assay type: functional; conditions: route intraperitoneal
Rattus norvegicus [29] = test: Drug discrimination effect in CD Albino rat assessed as percent of rat choosing cocaine lever at 0.3 mg/kg, ip; assay type: functional; conditions: route intraperitoneal
Mus musculus [30] = test: Locomotor activity in CD1 mouse assessed as stimulation at 0.3 mg/kg, ip after 1 hr relative to control; assay type: functional; conditions: route intraperitoneal
Mus musculus [31] = test: Locomotor activity in CD1 mouse assessed as stimulation at 10 mg/kg, ip after 1 hr relative to control; assay type: functional; conditions: route intraperitoneal
[32] = target: Sodium-dependent serotonin transporter (Homo sapiens, UniProt P31645)
Sequence of Sodium-dependent serotonin transporter (P31645 whole entry): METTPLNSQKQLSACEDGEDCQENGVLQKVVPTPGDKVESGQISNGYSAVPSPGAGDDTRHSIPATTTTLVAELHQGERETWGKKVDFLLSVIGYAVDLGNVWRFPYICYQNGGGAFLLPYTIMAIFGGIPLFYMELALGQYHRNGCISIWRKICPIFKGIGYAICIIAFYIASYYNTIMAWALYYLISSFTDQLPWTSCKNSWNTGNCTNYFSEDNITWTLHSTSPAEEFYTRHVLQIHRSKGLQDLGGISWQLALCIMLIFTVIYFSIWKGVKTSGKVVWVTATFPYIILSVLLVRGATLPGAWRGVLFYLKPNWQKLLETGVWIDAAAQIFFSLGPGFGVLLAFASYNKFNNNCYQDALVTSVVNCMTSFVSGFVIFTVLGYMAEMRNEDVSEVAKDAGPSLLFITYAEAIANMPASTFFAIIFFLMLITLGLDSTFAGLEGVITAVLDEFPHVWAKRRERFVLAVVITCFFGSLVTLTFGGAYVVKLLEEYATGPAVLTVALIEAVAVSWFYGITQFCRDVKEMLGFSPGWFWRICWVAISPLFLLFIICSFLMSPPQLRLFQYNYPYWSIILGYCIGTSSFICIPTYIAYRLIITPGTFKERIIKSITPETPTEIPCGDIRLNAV
Description: Displacement of [3H]paroxetine from 5HTT

Rattus norvegicus [33] = test: Drug discrimination effect in CD Albino rat assessed as percent of rat choosing cocaine lever at 10 mg/kg, ip; assay type: functional; conditions: route intraperitoneal
Rattus norvegicus [34] = test: Drug discrimination effect in CD Albino rat assessed as percent of rat choosing cocaine lever at 3 mg/kg, ip; assay type: functional; conditions: route intraperitoneal
Mus musculus [35] = test: Locomotor activity in CD1 mouse assessed as stimulation at 100 mg/kg, ip after 1 hr relative to control; assay type: functional; conditions: route intraperitoneal
Mus musculus [36] = test: Activity in CD1 mouse assessed as hyperactivity at 100 mg/kg, ip after 4 hrs; assay type: functional, organism-based; set-up: dose 100 mg/kg
Mus musculus [37] = test: Locomotor activity in CD1 mouse assessed as stimulation at 100 mg/kg, ip after 2 hrs relative to control; assay type: functional; conditions: route intraperitoneal
Mus musculus [38] = test: Locomotor activity in CD1 mouse assessed as stimulation at 30 mg/kg, ip after 2 hrs relative to control; assay type: functional; conditions: route intraperitoneal
Mus musculus [39] = test: Locomotor activity in CD1 mouse assessed as stimulation at 100 mg/kg, ip after 4 hrs relative to control; assay type: functional; conditions: route intraperitoneal
Mus musculus [40] = test: Activity in CD1 mouse assessed as circling at 100 mg/kg, ip after 4 hrs; assay type: functional, organism-based; set-up: dose 100 mg/kg
Mus musculus [41] = test: Locomotor activity in CD1 mouse assessed as stimulation at 30 mg/kg, ip after 3 hrs relative to control; assay type: functional; conditions: route intraperitoneal
Mus musculus [42] = test: Activity in CD1 mouse assessed as slight or intermittent hyperactivity at 10 mg/kg, ip after 4 hrs; assay type: functional, organism-based; set-up: dose 10 mg/kg
Mus musculus [43] = test: Locomotor activity in CD1 mouse assessed as stimulation at 100 mg/kg, ip after 3 hrs relative to control; assay type: functional; conditions: route intraperitoneal
Mus musculus [44] = test: Locomotor activity in CD1 mouse assessed as stimulation at 30 mg/kg, ip after 4 hrs relative to control; assay type: functional; conditions: route intraperitoneal
Rattus norvegicus [45] = test: Drug discrimination effect in CD Albino rat assessed as percent of rat choosing cocaine lever at 5.6 mg/kg, ip; assay type: functional; conditions: route intraperitoneal
Mus musculus [46] = test: Locomotor activity in CD1 mouse assessed as stimulation at 30 mg/kg, ip after 1 hr relative to control; assay type: functional; conditions: route intraperitoneal
Rattus norvegicus [47] = test: Drug discrimination effect in CD Albino rat assessed as percent of rat choosing cocaine lever at 1.7 mg/kg, ip; assay type: functional; conditions: route intraperitoneal

Row | SMILES | Activity (Mus musculus [2]) | Activity (Rattus norvegicus [4]) | Activity (Mus musculus [6]) | Activity (Mus musculus [7]) | ED50 (Mus musculus [8]) | Activity (Mus musculus [9]) | Activity (Mus musculus [10]) | Activity (Mus musculus [11]) | Activity (Mus musculus [12]) | Activity (Mus musculus [13]) | IC50 [17] | Ki [17] | ED50 (Rattus norvegicus [18]) | Activity (Mus musculus [19]) | Activity (Mus musculus [21]) | Activity (Mus musculus [22]) | Activity (Mus musculus [26]) | Activity (Mus musculus [31]) | Activity (Rattus norvegicus [33]) | Activity (Rattus norvegicus [34]) | other results
1 | COC(=O)[C@@H]1C2CC[C@H](C[C@@H]1c1ccccc1)N2C | 190% | 100% | 1080% | Active | 1.2 mg/kg | Active | Active | 506% | 964% | Active | 920 nM | 550 nM | 0.34 mg/kg | 276% | 660% | 199% | Active | 904% |  |  | Activity (Mus musculus [1]): 192%; Activity (Mus musculus [3]): 56%; Activity (Mus musculus [5]): 102%; Activity (Mus musculus [14]): Active; Activity (Mus musculus [15]): Active; Activity (Mus musculus [16]): 62%; Activity (Rattus norvegicus [20]): 14%; Activity (Rattus norvegicus [23]): 88%; Activity (Mus musculus [24]): 253%; Activity (Mus musculus [25]): 151%; Activity (Mus musculus [27]): Active; Activity (Mus musculus [28]): 24%; Activity (Rattus norvegicus [29]): 36%; Activity (Mus musculus [30]): 44%
2 | COC(=O)[C@@H]1C2CCC(C[C@H]1c1ccc(F)cc1)N2C (stereo partly specified) | 58% | 0% | 105% | Active | 15.6 mg/kg |  | Active | -23% | 146% | Active | 1200 nM | 741 nM | 5.66 mg/kg | 16% | 26% | 41% |  | 137% | 86% | 29% | IC50 [32]: 5.06 µM; Ki [32]: 460 nM; Activity (Mus musculus [35]): 575%; Activity (Mus musculus [36]): Active; Activity (Mus musculus [37]): 340%; Activity (Mus musculus [38]): 187%; Activity (Mus musculus [39]): 73%; Activity (Mus musculus [40]): Active; Activity (Mus musculus [41]): 215%; Activity (Mus musculus [42]): Active; Activity (Mus musculus [43]): 194%; Activity (Mus musculus [44]): 66%; Activity (Rattus norvegicus [45]): 38%; Activity (Mus musculus [46]): 362%
3 | COC(=O)[C@H]1[C@@H](OC(=O)c2ccccc2)C[C@@H]2CC[C@H]1N2C [COCAINE] | -21% | 21% | 24% |  | 10 mg/kg | Active |  | 14% | 10% | Active |  |  | 2.44 mg/kg | -17% | 27% | -9% | Active | 127% | 97% | 59% | Activity (Mus musculus [35]): 269%; Activity (Mus musculus [36]): Active; Activity (Mus musculus [37]): 391%; Activity (Mus musculus [38]): 100%; Activity (Mus musculus [39]): 91%; Activity (Mus musculus [41]): -10%; Activity (Mus musculus [43]): 255%; Activity (Mus musculus [44]): 16%; Activity (Rattus norvegicus [45]): 82%; Activity (Rattus norvegicus [47]): 32%; Activity (Mus musculus [46]): 341%
